Test results from PMC11269731, “Pannexin-1 channel inhibition alleviates opioid withdrawal in rodents by modulating locus coeruleus to spinal cord circuitry” (Nature Communications, 2024).

Molecular target: T1, Pannexin-1 (rPanx1) (Rattus norvegicus, UniProt P60570)
T1 construct: gene Panx1; Rattus norvegicus Pannexin-1 cDNA in pRK5 (pRK5-rPanx1)
Assay: whole-cell patch clamp of HEK-293T cells transfected with rat Panx1
Type: cell-based

T1 sequence (P60570 whole entry): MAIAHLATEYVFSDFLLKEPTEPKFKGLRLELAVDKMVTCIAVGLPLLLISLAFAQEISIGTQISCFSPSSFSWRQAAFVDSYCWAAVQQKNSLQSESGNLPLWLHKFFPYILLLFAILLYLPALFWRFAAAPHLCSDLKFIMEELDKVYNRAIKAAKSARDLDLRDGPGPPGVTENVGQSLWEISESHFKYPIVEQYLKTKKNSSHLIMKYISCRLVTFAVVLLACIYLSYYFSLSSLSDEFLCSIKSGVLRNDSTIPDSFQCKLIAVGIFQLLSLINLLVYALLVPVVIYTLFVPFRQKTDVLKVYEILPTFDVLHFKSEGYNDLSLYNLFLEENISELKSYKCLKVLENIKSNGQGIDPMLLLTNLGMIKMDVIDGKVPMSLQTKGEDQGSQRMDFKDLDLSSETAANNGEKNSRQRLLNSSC

Structure (SMILES) | IC50
CCCN(CCC)S(=O)(=O)c1ccc(C(O)(C(F)(F)F)C(F)(F)F)cc1 [EG-2184, 4-(1,1,1,3,3,3-hexafluoro-2-hydroxypropan-2-yl)-N,N-dipropylbenzenesulfonamide] | 0.054 µM
CCCN(CCC)S(=O)(=O)c1ccc(C(=O)O)cc1 [probenecid] | 74.6 µM
